Common to all, as to experiment: kinase profiling panel
What all share (format): biochemical
Holding throughout (conditions): read-out: % Activity Remaining

For one test, the target named is T1, ERK8 (Homo sapiens, UniProt Q8TD08).
T1 sequence (Q8TD08 1-544): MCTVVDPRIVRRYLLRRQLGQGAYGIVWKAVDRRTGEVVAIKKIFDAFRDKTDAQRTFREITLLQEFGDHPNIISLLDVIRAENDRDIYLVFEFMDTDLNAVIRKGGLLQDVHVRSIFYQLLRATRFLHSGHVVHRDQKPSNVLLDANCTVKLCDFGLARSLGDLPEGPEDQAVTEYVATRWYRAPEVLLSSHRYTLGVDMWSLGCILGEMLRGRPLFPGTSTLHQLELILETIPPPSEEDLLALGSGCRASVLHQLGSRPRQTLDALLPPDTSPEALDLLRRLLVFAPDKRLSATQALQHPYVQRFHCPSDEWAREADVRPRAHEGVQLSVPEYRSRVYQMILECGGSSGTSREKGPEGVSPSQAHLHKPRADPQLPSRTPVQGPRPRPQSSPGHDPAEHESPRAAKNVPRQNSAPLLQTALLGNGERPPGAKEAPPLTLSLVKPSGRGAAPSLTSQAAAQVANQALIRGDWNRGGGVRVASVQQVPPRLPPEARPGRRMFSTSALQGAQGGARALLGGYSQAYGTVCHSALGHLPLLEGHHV
An excerpt: (§1) Protein kinase profiling against a Dundee panel of 140 protein kinases was undertaken at the International Centre for Protein Kinase Profiling. The result for each kinase was presented as a mean kinase activity of the reaction taken in triplicate relative to a control sample treated with DMSO. Assay conditions and abbreviations are available at http://www.kinase-screen.mrc.ac.uk.

The target in a further test is CK2 (Homo sapiens, UniProt P68400).
Sequence of CK2 (P68400 whole entry): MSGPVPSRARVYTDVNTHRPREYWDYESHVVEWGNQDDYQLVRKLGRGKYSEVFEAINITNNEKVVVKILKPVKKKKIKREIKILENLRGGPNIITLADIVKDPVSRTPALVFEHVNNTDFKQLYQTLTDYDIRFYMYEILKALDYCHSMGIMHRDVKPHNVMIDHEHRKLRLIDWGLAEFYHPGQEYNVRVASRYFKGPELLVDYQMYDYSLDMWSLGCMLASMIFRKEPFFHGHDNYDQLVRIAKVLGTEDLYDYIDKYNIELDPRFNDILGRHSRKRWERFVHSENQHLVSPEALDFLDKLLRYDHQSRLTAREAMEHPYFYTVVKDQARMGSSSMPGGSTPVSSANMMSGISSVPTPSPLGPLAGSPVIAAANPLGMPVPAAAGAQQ
From the text: as §1

For the next test, the target named is MINK1 (Homo sapiens, UniProt Q8N4C8).
Sequence of MINK1 (Q8N4C8 whole entry): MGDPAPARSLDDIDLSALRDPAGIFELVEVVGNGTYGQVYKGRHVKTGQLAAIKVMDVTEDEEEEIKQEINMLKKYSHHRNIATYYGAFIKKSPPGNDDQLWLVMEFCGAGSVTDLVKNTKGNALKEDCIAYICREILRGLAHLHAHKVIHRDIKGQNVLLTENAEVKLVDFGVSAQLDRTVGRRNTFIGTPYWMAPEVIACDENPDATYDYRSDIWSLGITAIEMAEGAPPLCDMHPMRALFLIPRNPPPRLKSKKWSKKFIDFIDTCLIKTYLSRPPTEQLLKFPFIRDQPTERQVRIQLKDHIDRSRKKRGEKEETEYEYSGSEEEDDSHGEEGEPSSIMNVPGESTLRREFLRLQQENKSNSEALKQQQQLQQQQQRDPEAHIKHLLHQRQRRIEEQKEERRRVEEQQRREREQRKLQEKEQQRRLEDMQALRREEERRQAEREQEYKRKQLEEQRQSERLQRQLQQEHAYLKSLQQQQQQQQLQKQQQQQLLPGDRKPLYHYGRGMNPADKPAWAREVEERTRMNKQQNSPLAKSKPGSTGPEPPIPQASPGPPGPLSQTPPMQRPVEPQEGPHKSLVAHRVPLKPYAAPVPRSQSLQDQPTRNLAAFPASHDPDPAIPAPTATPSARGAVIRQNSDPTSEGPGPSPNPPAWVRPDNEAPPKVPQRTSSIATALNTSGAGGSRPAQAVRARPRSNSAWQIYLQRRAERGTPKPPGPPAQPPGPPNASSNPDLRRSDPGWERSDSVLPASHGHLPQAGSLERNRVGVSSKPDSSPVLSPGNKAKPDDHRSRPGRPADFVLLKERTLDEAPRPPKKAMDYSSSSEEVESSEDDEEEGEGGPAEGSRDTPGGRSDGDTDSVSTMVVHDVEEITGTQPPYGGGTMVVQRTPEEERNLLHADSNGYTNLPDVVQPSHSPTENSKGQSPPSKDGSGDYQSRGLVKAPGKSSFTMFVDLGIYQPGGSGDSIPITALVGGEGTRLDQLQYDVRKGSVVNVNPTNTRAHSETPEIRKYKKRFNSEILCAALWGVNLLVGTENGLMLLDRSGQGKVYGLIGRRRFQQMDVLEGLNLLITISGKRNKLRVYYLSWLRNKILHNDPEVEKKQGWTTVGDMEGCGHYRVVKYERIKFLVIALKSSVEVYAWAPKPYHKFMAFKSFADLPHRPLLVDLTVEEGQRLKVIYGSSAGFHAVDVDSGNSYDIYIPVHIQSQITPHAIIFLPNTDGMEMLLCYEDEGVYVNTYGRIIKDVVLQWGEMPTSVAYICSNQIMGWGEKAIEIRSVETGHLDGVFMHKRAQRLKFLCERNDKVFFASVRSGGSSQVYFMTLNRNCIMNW
From the text: as §1

A further test addresses T2, MST2 (Homo sapiens, UniProt Q13188).
T2 sequence (Q13188 1-491): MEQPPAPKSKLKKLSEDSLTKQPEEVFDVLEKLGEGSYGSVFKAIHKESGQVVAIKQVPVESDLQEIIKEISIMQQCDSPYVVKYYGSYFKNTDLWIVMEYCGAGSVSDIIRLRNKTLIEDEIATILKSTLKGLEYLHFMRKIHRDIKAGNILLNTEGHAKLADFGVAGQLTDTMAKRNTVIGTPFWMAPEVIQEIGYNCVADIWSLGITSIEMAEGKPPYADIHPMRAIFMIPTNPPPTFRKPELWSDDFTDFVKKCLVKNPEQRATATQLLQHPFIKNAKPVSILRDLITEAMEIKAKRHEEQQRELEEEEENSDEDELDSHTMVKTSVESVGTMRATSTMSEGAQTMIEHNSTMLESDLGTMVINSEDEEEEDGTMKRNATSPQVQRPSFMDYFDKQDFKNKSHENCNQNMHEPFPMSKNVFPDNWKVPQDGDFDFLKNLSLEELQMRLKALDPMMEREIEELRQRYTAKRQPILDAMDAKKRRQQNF
From the text: as §1

Another test concerns the target ERK1 (Homo sapiens, UniProt P27361).
From the text: as §1

Another test has as its target T3, DDR2 (Homo sapiens, UniProt Q16832).
T3 sequence (Q16832 22-855): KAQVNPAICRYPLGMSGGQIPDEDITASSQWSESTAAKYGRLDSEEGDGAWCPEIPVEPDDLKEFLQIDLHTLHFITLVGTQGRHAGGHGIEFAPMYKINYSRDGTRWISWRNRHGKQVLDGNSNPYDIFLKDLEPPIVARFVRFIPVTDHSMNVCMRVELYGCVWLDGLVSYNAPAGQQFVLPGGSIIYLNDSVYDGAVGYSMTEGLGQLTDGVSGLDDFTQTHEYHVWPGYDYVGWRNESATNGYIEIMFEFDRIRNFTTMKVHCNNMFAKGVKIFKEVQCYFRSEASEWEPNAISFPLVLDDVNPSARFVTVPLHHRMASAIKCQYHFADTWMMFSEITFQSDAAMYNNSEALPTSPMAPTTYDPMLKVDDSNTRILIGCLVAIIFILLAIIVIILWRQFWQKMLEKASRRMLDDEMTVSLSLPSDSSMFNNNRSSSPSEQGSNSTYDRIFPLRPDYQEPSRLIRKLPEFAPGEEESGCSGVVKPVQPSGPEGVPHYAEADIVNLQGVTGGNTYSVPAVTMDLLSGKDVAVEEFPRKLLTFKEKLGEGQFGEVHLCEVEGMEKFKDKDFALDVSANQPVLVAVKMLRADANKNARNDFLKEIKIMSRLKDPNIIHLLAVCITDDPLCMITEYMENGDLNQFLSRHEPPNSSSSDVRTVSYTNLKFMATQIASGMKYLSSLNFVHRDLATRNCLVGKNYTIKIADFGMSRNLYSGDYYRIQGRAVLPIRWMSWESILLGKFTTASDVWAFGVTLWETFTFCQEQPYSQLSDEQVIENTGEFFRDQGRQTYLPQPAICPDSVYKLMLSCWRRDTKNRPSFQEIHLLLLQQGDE
From the text: as §1

The target of the next test is PKB alpha (Homo sapiens, UniProt P31749).
Sequence of PKB alpha (P31749 whole entry): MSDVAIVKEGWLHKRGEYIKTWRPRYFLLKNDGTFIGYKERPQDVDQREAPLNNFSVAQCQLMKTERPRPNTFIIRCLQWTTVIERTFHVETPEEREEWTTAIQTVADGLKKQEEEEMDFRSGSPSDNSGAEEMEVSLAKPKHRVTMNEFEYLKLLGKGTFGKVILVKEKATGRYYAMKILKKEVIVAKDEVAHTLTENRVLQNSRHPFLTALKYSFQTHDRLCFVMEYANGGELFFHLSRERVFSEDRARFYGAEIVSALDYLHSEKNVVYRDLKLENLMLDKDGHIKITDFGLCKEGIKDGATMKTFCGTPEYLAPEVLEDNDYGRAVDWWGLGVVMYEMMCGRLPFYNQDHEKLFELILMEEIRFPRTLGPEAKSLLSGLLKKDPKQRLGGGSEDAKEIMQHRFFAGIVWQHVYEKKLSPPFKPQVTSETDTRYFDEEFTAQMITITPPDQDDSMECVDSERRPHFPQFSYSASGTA
From the text: as §1

Another test deals with MARK1 (Homo sapiens, UniProt Q9P0L2).
Sequence of MARK1 (Q9P0L2 whole entry): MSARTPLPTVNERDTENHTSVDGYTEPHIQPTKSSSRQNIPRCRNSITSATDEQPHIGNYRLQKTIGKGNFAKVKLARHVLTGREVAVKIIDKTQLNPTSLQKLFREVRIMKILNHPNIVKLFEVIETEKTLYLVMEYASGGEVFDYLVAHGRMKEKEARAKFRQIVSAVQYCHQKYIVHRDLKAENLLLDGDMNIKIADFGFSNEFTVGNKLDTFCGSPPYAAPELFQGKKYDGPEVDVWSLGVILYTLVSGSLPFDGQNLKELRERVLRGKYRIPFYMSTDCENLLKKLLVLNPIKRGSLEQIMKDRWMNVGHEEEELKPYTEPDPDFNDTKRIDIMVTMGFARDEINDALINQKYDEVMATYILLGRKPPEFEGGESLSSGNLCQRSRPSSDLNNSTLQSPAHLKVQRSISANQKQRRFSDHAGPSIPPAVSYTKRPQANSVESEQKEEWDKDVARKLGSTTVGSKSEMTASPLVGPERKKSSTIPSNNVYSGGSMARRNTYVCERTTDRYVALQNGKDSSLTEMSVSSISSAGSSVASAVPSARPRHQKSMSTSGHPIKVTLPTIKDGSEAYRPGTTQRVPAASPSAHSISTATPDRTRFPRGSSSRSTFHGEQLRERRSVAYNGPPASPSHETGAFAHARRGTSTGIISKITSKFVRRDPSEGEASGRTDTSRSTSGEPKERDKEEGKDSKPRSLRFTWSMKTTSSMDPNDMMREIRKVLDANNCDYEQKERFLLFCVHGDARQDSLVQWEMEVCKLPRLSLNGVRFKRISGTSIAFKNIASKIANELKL
From the text: as §1

Another test addresses MARK3 (Homo sapiens, UniProt P27448).
From the text: as §1

Read-outs that look alike come from different tables or passages of the source.

Remaining activity data for 4 compounds are collected here from article PMC6757289, “Design and Characterization of SGK3-PROTAC1, an Isoform Specific SGK3 Kinase PROTAC Degrader” (ACS Chemical Biology, 2019).

Sequence of MARK3 (P27448 whole entry): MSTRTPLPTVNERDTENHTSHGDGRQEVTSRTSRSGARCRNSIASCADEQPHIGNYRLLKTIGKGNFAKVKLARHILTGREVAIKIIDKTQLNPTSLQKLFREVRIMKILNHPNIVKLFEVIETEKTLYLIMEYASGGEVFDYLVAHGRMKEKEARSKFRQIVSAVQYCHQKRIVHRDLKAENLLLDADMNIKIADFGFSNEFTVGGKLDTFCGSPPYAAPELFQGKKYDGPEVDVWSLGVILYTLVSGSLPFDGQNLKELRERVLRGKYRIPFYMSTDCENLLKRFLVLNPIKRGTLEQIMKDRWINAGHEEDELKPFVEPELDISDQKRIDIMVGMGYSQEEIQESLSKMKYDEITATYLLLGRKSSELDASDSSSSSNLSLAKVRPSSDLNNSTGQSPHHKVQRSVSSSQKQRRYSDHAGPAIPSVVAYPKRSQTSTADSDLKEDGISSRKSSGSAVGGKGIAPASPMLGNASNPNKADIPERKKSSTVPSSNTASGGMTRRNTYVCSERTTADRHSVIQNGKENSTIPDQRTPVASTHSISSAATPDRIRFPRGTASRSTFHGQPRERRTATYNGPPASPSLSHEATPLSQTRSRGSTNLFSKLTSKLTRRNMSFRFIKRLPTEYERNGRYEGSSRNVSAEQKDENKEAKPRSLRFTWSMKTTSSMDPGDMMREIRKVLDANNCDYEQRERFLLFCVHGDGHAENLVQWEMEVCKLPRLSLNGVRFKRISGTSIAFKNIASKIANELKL
Sequence of ERK1 (P27361 whole entry): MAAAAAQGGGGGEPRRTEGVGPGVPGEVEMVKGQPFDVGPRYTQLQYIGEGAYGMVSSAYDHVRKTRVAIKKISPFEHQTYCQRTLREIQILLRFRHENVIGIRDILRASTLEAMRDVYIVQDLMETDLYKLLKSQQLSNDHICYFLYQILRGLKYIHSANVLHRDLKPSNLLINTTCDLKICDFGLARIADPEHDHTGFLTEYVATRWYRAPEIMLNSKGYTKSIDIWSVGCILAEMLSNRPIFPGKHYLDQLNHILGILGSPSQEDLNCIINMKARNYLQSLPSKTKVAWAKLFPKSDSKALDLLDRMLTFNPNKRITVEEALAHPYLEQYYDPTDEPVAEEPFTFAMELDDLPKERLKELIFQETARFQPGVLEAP

Consider `COc1ccc(Cl)c(S(=O)(=O)Nc2ccc(-c3nc(OC[C@H]4CNCCO4)c4c(C)n[nH]c4n3)cc2)c1` [290-R, reference compound], for which the remaining activity at 1 µM on ERK8 was 18%; on CK2 (1 µM) it was 100%; on MINK1, 101%; at MST2, 105%; on ERK1, 115%; at DDR2, 80%. Moreover, the values for the remaining activity at 1 µM on PKB alpha, at MARK1 and on MARK3 were 49%, 115% and 89%, respectively.

In the case of `Cc1ccc(F)c(S(=O)(=O)Nc2ccc(-c3nc(OC[C@H]4CNCCO4)c4cn[nH]c4n3)cc2)c1` [308-R, reference compound], the remaining activity at 1 µM at ERK8 amounted to 49%; at CK2, 103%; on MINK1, 83%; at MST2 it was 86%; on ERK1 it was 106%; on DDR2, 106%. The remaining activity at 1 µM was 96% on PKB alpha, 109% on MARK1 and 103% at MARK3.

`Cc1ccc(F)c(S(=O)(=O)Nc2ccc(-c3nc(OC[C@H]4CN(CCCCCCOCCOCCOCC(=O)N[C@H](C(=O)N5C[C@H](O)C[C@H]5C(=O)NCc5ccc(-c6scnc6C)cc5)C(C)(C)C)CCO4)c4cn[nH]c4n3)cc2)c1` [SGK3-PROTAC1]: the remaining activity at 1 µM turned out to be 94% on ERK8 (1 µM); 90% at CK2 (1 µM); 115% at MINK1 (1 µM); 112% on MST2 (1 µM); 103% on ERK1 (1 µM); 114% on DDR2 (1 µM). Moreover, the values for the remaining activity at 1 µM at PKB alpha (1 µM), at MARK1 (1 µM) and on MARK3 (1 µM) were 105%, 99% and 98%, respectively.

Take `Cc1ccc(F)c(S(=O)(=O)Nc2ccc(-c3nc(OC[C@H]4CN(CCCCCCOCCOCCOCC(=O)N[C@H](C(=O)N5C[C@@H](O)C[C@H]5C(=O)NCc5ccc(-c6scnc6C)cc5)C(C)(C)C)CCO4)c4cn[nH]c4n3)cc2)c1` [cisSGK3-PROTAC1]: the remaining activity at 1 µM was 86% at ERK8 (1 µM); 96% at CK2 (1 µM); 116% at MINK1 (1 µM); 100% on MST2 (1 µM); 101% on ERK1 (1 µM); 134% on DDR2 (1 µM). Besides, the remaining activity at 1 µM amounted to 117% on PKB alpha (1 µM), 93% on MARK1 (1 µM) and 109% at MARK3 (1 µM).

As a reminder, the remaining activity is the signal under treatment as a percentage of the control signal.
